According to patent US20070270455A1, “INHIBITION OF NF-kB” (priority 2005, published 2007):
One block for each compound: values may come before it. Residues, ends and D or L forms follow the SMILES beside them. *: point of attachment. Cbz = O=C(OCc1ccccc1)*

Legend:
[1] = system: HT1080-sip53 and HT1080-siGFP cells; assay: Cell survival assay in isogenic cell pairs with anti-p53 or control siRNA; assay type: cell-based, human; settings: p53 plus vs minus cells; FIG. 4d
[2] = system: RCC specimens and fragments of normal kidney; assay: p53-responsive lacZ reporter in ex vivo organ cultures; assay type: cell-based; settings: 24 hours, X-gal
Protocol: (§1) IC50% for each cell line and each drug was determined. Each point represents IC50% of particular cell line, which are grouped as follows: (i) black circles—RCC cell lines (ACHN, RCC9, RCC13, RCC29, RCC45, RCC54), (ii) red triangles—non-RCC cell lines (MCF7, HT1080, H1299, U20S, LNCaP, HCT116), (iii) green squares—normal kidney cells (NKE). […] 10^7 of ACHN cells were inoculated under the skin of nude mice. At the moment tumors achieved 5 mm in diameter QC administrations were started intraperitoneally, 50 mg/kg. 5FU (35 mg/kg) was used as a control. Tumor size was measured every other day and presented as a fold increase in tumor volume.
Fresh RCC specimens and fragments of normal kidney from the same patients were placed in short-term organ cultures in the media containing lentiviral vector carrying p53-responsive lacZ reporter (FIG. 10B) for 24 hours.

[3] = system: p53; assay: Western blot of p53 phosphorylation status in RCC45 cells; assay type: cell-based; settings: 9AA 5 μM or dox 1 μM, 16 hours
Protocol: (§2) Western blot analysis of total protein lysates was performed using antibodies against p53 (DO1) and against specific sites of phosphorylation in p53. […] HCT116 cells were treated for 30 minutes with 1 μM PS-341. PS-341 was washed off after 30 minutes and cells were re-incubated in drug free medium prior to analysis at 3 hours or 16 hours post-treatment. […] Proteasome activity was determined by measuring the absorbance of free AMC generated by cleavage of an AMC-fluorogenic peptide. The proteasome activity of untreated cells was set at 100%. […] Cell lysates were isolated at the indicated hours after treatment and used for western blotting. […]
(§3) Cells were lysed in RIPA buffer (25 mM Tris HCl, pH7.2, 125 mM NaCl, 1% NP40, 1% sodium deoxycholate, 1 mM EDTA) containing 1 mM PMSF (Sigma), 10 μg/ml of aprotinin (Sigma) and 10 μg/ml of leupeptin (Sigma). Protein concentrations were determined with BioRad Dc protein assay kit. […] The following antibodies were used: anti-p53—monoclonal mouse DO1 (Santa-Cruz), anti-p21—monoclonal mouse F-5 (Santa-Cruz), anti-mdm2—monoclonal mouse SMP14 (Santa-Cruz). p53 phosphorylation status was analyzed using phospho-p53 sampler kit from Cell signaling according to manufacturer's recommendations, anti-p65—(C20, Santa Cruz), anti-phospho-p65—(ser536, Cell Signaling), anti-IκBa—(C21, Santa Cruz), anti-p50—(NLS, Santa Cruz). […]

[4] = system: RCC cell lines; assay: Restoration of p53-mediated transactivation in RCC cell lines; assay type: cell-based; settings: data not shown
[5] = system: HT1080siGFP cells; assay: Xenograft tumor growth, p53-expressing tumors; assay type: in vivo, nude mice; settings: 50 mg/kg i.p. daily; 5FU 35 mg/kg for comparison
Protocol: (§4) HT1080ConALuC cells were inoculated into two flanks of nude mice. When tumors reach 5 mm in diameter, mice were injected intraperitoneally with indicated concentrations of the drugs (mg/kg, 3 mice per group). After 24 hours mice were sacrificed, tumors were isolated, lysed in Reporter Lysis Reagent (Promega) and luciferase activity was measured in […] of tumor proteins. Bars represent fold of induction of luciferase activity in tumors, treated with drugs over luciferase activity in tumors treated with vehicle. FIG. 5B: HT1080sip53 or HT1080siGFP cells were inoculated in the left and right flank of nude mice respectively.
(§5) NIH Swiss athymic nude, male mice, 5-6 weeks old were purchased from Harlan. 5×10^6 of tumor cells were inoculated into the flank of mice in 100 μL of PBS. […] As vehicle, 50% DMSO solution in PBS was used. Tumor size was measured in three dimensions every other day.

[6] = system: ACHN cells; assay: ACHN tumor xenograft growth; assay type: in vivo, nude mice
Protocol: as §1, §5

[7] = system: HT1080sip53 cells; assay: Xenograft tumor growth, p53-deficient tumors; assay type: in vivo, nude mice; settings: 50 mg/kg i.p. daily
Protocol: as §4, §5

[8] = system: PC3 p53-negative or DU145 cells comprising mutant p53; assay: Prostate cancer xenograft tumor growth; assay type: in vivo, mice; settings: 100 mg/kg by oral gavage; control sterile water
Excerpt: Mice were also inoculated with 2×10^6 human prostate cancer cells using PC3 p53-negative or with DU145 cells comprising mutant p53. […] Tumor growth was reduced by ˜50% in quinacrine-treated mice.

[9] = system: HT1080ConALuC tumors; assay: p53-dependent luciferase reporter in xenograft tumors; assay type: in vivo; settings: intraperitoneal; 24 hours; nude mice
Protocol: as §4, §5
The in vivo anti-tumor effects of aminoacridines were tested in a xenograft tumor model using HT1080 cells differing in their p53 status and carrying p53 luciferase reporters grown subcutaneously in nude mice.

[10] = system: H1299-NF-kBLuc cells; assay: NF-κB-responsive luciferase reporter assay; assay type: cell-based; settings: basal and TNF-induced (10 ng/ml)
[11] = system: RCC54 and RCC45, normal kidney epithelial cells; assay: Sensitization to TRAIL, methylene blue assay; assay type: cell-based; settings: RCC54, RCC45 vs normal kidney epithelial cells; combination with TRAIL
[12] = system: RCC45ConALacZ cells; assay: p53-responsive reporter (ConALacZ) β-galactosidase assay in RCC45 cells; assay type: cell-based; settings: compared with doxorubicin
Protocol: 2×10^4 of RCC45ConALacZ cells were plated into wells of 96 well plates in 200 μL of phenol-red free RPMI medium with standard additives. After overnight incubation library of chemical compounds in DMSO solution together with controls was added with the help of plastic bacterial replicators (200+/−100 nL). Final concentration of compounds was around 5 μg/ml. Negative control was DMSO, positive control was doxorubicin solution (0.2, 0.6 and 2 μM). After 24 hours lysis buffer with ONPG was added directly to the medium on ice. After 3 hours of incubation at 37° C., β-galactosidase activity was estimated by reading absorbance values Wallack 1420 plate reader (Perkin Elmer) at λ=430 nm.
For cotransfection set-up, 2×10^5 cells were plated into 6 well plates and, after overnight incubation, transfected with Lipofectamin Plus reagent (Gibco BRL) with 0.5 μg of reporter plasmids (p21-ConALuc or pNF-κBLuc) in combination with different concentrations of p53, Arf, Ss-IκB, or siHDM2 expressing plasmids. […] Luciferase activity and β-galactosidase activity was measured in lysates prepared 48 hours after transfection with Cell Lysis Buffer (Promega) by luciferase assay system (Promega) or β-galactosidase enzyme system (Promega). Luminometric and colorimetric reactions were read on the Wallack 1420 plate reader (Perkin Elmer). […]

[13] = system: IκB; assay: Western blot of IκB level and phosphorylation; assay type: cell-based; settings: PC-3 cells, 10 μM; MCF7 cells
Protocol: as §2, §3

SMILES: CC(=O)O[C@H]1C(=O)[C@@]2(C)[C@H]([C@H](OC(=O)c3ccccc3)[C@]3(O)C[C@H](OC(=O)[C@H](O)[C@@H](NC(=O)c4ccccc4)c4ccccc4)C(C)=C1C3(C)C)[C@]1(OC(C)=O)CO[C@@H]1C[C@@H]2O [paclitaxel]
toxicity found to be p53-dependent (none = not p53-dependent) [1]: none

SMILES: COc1cccc2c1C(=O)c1c(O)c3c(c(O)c1C2=O)C[C@@](O)(C(=O)CO)C[C@@H]3O[C@H]1C[C@H](N)[C@H](O)[C@H](C)O1 [doxorubicin]
expression of p53-responsive reporter in tumor samples [2]: not
p53 phosphorylation status [3]: did induce phosphorylation of p53
toxicity found to be p53-dependent (none = not p53-dependent) [1]: none

SMILES: CCN(CC)CCCC(C)Nc1c2ccc(Cl)cc2nc2ccc(OC)cc12 (stereo not shown) [quinacrine, Quinacrine]
RCC cell lines with restored p53-mediated transactivation [4]: 9 out of 10
growth of p53-expressing tumors [5]: inhibited growth of p53-expressing tumors to the same extend as 5FU
weight loss (in words) ([6]; 50 mg/kg intraperitoneally): without significant weight loss
inhibition of tumor growth ([6]; ACHN s.c. in nude mice, 50 mg/kg intraperitoneally): about 50%
growth of p53-deficient tumors [7]: no effect
reduction of tumor growth [8]: ~50%
expression of p53-responsive reporter in tumor samples [2]: induced expression of the p53-responsive reporter
activation of p53 in tumors [9]: capable of activating p53 in tumors
NF-κB-responsive reporter activity [10]: inhibited basal and TNF-induced activity of the reporter
TRAIL resistance [11]: inverted TRAIL resistance of tumor but not normal kidney cells
p53 reactivation / reporter induction (in words) [12]: intermediate level of activity

SMILES: CC[C@]1(O)C[C@@H]2CN(CCc3c([nH]c4ccccc34)[C@@](C(=O)OC)(c3cc4c(cc3OC)N(C)[C@H]3[C@@](O)(C(=O)OC)[C@H](OC(C)=O)[C@]5(CC)C=CCN6CC[C@]43[C@@H]65)C2)C1 [vinblastine]
toxicity found to be p53-dependent (none = not p53-dependent) [1]: none

SMILES: CC[C@@]1(O)C(=O)OCc2c1cc1n(c2=O)Cc2cc3ccccc3nc2-1 [camptothecin]
toxicity found to be p53-dependent (none = not p53-dependent) [1]: none

weight loss ([6]; 5FU 35 mg/kg): up to 20%
SMILES: O=c1[nH]cc(F)c(=O)[nH]1 [5FU, 5-fluorouracil]

SMILES: CC(C)C[C@@H](C=O)NC(=O)[C@H](CC(C)C)NC(=O)[C@H](CC(C)C)NC(=O)OCc1ccccc1 [MG132] (Cbz-Leu-Leu-Leu-aldehyde)
level of IκB [13]: caused accumulation of phosphorylated forms of IkB
